Experimental data as given in patent US20140017893A1, “CMP POLISHING LIQUID AND METHOD FOR POLISHING SUBSTRATE USING THE SAME” (Hitachi Chemical Company, Ltd., priority 2007, published 2014).
Converted amounts (≈) assume the structure as drawn.

Test: Solubility of guanidine compounds in water, OECD Guideline 105 flask method
Format: physicochemical

In the case of `Cc1ccccc1NC(=N)NC(=N)N` [o-Tolylbiguanide], the Solubility in water is reported as 15 mM (≈ 2870 µg/mL).

With `N=C(N)NN` [aminoguanidine] the solubility (water, thermodynamic from solid) was 50 mM (≈ 3700 µg/mL).
